According to US20090286831A1, “VR1 Receptor Ligands and u-Opioid Receptor Ligands for the Treatment of Pain” (priority 2006, published 2009):

Columns and labels:
Assay type in all cases: in vivo, rat
[1] = system: rats after spinal nerve ligature; experiment: Mono-neuropathic pain after spinal nerve ligature (Chung model), electronic von Frey
Method: (§1) Sprague Dawley rats (140-160 g body weight) were used for the following animal models. Sprague Dawley rats (140-160 g body weight) from a commercial breeder (Janvier, Genest St. Isle, France) were used. The animals were kept under standard conditions: light-dark rhythm (06:00 to 18:00 h light, 18:00 to 06:00 h dark), room temperature 19-23° C., relative air humidity 45-65%, air exchange 19 times per hour, air movement <0.2 m/s, free choice of tap water and standard feed, Macrolon Type 4 cages with 5 animals per cage. The solutions of the test substances and/or vehicles (10% […], 5% Cremophor EL, 5% glucose) were administered intravenously.
Under pentobarbital narcosis (Narcoren®, […] i.p., Merial GmbH, Hallbergmoos, Germany), the L5, L6 spinal nerves were firmly bound. The left L5 and L6 spinal nerves were exposed by removing a piece of paravertebral muscle and a portion of the left spinal process of the L5 lumbar vertebral body. The L5 and L6 spinal nerves were carefully isolated and bound with a firm ligature (NC silk, black, USP 5/0, metric 1, Braun Melsungen AG, Melsungen, Germany) (Kim and Chung, An experimental model for peripheral neuropathy produced by segmental spinal nerve ligature in the rat, Pain, 50, 1992, 355-363). After haemostasis was determined, the muscle and adjacent tissue were sutured and the wound closed by metal clamps. After a one-week recovery period the animals were placed in cages with a wire base closed to the top by a plastic hood for measurement of the mechanical allodynia. The animals were kept in this cage until their explorative behaviour had decreased.
The threshold for the tactile allodynia was measured by means of an electronic von Frey anaesthesiometer (Somedic AB, Malmö, Sweden). The animals were randomly divided into groups of 10 animals. Each group received an individual dose of test substance or vehicle and the measurements were conducted 0.5 h before application and at various times after intravenous administration. Both the ipsi- and the contra-lateral rear paw were tested. The median of five stimulations gave a measured data point. The data were determined as % maximum possible effect (% MPE) from the pre-tests of the Chung individual animals (=0% MPE) and the test values of an independent sham control group (=100% MPE). The effect of the test substance and the vehicle was calculated for each measurement time (i.e. 0.5, 1 and 3 h after application) as inter-individual % MPE value. […] The corresponding threshold values are given in gram (mean±SEM).

rats [2] = experiment: Tail-flick (hot beam) test in rats
rats [3] = experiment: Tail-flick (hot beam) test in rats; remark: listed apart in the source
Method: as §1
The analgesic efficacy of the test compounds was examined in the hot beam (tail flick) test in rats using the method of D'Amour and Smith (J. Pharm. Exp. Ther. 1941, 72, 74-79). The time from switching on the lamp (8V/50 W) to the sudden flicking away of the tail from the hot beam (pain latency) was measured by means of a semiautomatic apparatus (tail-flick Analgesiemeter Type 50/08/1.bc, Labtec, Dr. Hess, Germany). The lamp intensity was adjusted before conducting the experiments so that the time from switching on the lamp to the sudden flicking away of the tail (pain latency) amounted to 3-5 seconds in untreated animals. The lamp was automatically switched off after 12 seconds to avoid tissue damage to the rat's tail. The pain latency was measured 10, 20, 40 and 60 min after intravenous administration. The analgesic effect was determined as increase in pain latency (% MPE) according to the following formula: […]
In this case, T0 is the latency time before and T1 the latency time after substance application, T2 is the maximum exposure time (12 sec). Results of the analgesia study in the tail-flick test in rats:
The following experiments of Example 2 relate to binding studies and the analgesic efficacy of the compounds with dual mode of action according to the invention. The experiments comprise the determination of the (f)Ki value at the TPRV1 receptor, the Ki value at the μ-opioid receptor and the hypothermia assay in mice. The tail-flick test for the compounds [1], [4], [7] and [10] according to the invention was conducted in a similar manner to the above-described method (cf. Example 1, experiment 1).

[4] = AMG-9810 2.15 mg/kg i.v. group, Control (pre-test 0.5 h before application)
[5] = AMG-9810 2.15 mg/kg i.v., 30 min
[6] = AMG-9810 2.15 mg/kg i.v., 60 min
[7] = AMG-9810 2.15 mg/kg i.v., 180 min
[8] = Morphine 1.0 mg/kg i.v. group, Control (pre-test 0.5 h before application)
[9] = Morphine 1.0 mg/kg i.v., 30 min
[10] = Morphine 1.0 mg/kg i.v., 60 min
[11] = Morphine 1.0 mg/kg i.v., 180 min
[12] = Morphine 2.0 mg/kg i.v. group, Control (pre-test 0.5 h before application)
[13] = Morphine 2.0 mg/kg i.v., 30 min
[14] = Morphine 2.0 mg/kg i.v., 60 min
[15] = Morphine 2.0 mg/kg i.v., 180 min

With `CC(C)(C)c1ccc(/C=C/C(=O)Nc2ccc3c(c2)OCCO3)cc1` [AMG-9810] the “pull-away threshold value, contra-lateral rear paw, mean” value [1, 4] was 57.79 gram, the “pull-away threshold value, ipsi-lateral rear paw, mean” value [1, 4] was 23.23 gram and the “pull-away threshold value, contra-lateral rear paw, mean” value [1, 5] was 55.91 gram. The “pull-away threshold value, ipsi-lateral rear paw, mean” value [1, 5] was 32.27 gram, the “pull-away threshold value, contra-lateral rear paw, mean” value [1, 6] was 52.4 gram and the “pull-away threshold value, ipsi-lateral rear paw, mean” value [1, 6] was 31.18 gram. For the same compound, the “pull-away threshold value, contra-lateral rear paw, mean” value [1, 7] was 57.38 gram, the “pull-away threshold value, ipsi-lateral rear paw, mean” value [1, 7] was 26.94 gram and the “% MPE (increase in pain latency), mean” value (rats [2]; AMG-9810 10 mg/kg i.v., 40 min) was 4.38 % MPE. For the same compound, the “% MPE (increase in pain latency), mean” value (rats [3]; AMG-9810 10 mg/kg i.v., 10 min) was 26.36 % MPE, the “% MPE (increase in pain latency), mean” value (rats [3]; AMG-9810 10 mg/kg i.v., 20 min) was 11.44 % MPE and the “% MPE (increase in pain latency), mean” value (rats [3]; AMG-9810 10 mg/kg i.v., 60 min) was −4.06 % MPE.
With `CN1CC[C@]23c4c5ccc(O)c4O[C@H]2[C@@H](O)C=C[C@H]3[C@H]1C5` [Morphine, morphine] the “pull-away threshold value, contra-lateral rear paw, mean” value [1, 8] was 56.81 gram, the “pull-away threshold value, ipsi-lateral rear paw, mean” value [1, 8] was 23.63 gram and the “pull-away threshold value, contra-lateral rear paw, mean” value [1, 9] was 67.87 gram. For the same compound, the “pull-away threshold value, ipsi-lateral rear paw, mean” value [1, 9] was 32.13 gram, the “pull-away threshold value, contra-lateral rear paw, mean” value [1, 10] was 60.95 gram and the “pull-away threshold value, ipsi-lateral rear paw, mean” value [1, 10] was 27.65 gram. For the same compound, the “pull-away threshold value, contra-lateral rear paw, mean” value [1, 11] was 54.63 gram, the “pull-away threshold value, ipsi-lateral rear paw, mean” value [1, 11] was 30.67 gram and the “pull-away threshold value, contra-lateral rear paw, mean” value [1, 12] was 58.39 gram. For the same compound, the “pull-away threshold value, ipsi-lateral rear paw, mean” value [1, 12] was 24.37 gram, the “pull-away threshold value, contra-lateral rear paw, mean” value [1, 13] was 82.83 gram and the “pull-away threshold value, ipsi-lateral rear paw, mean” value [1, 13] was 48.44 gram. For the same compound, the “pull-away threshold value, contra-lateral rear paw, mean” value [1, 14] was 74.68 gram, the “pull-away threshold value, ipsi-lateral rear paw, mean” value [1, 14] was 44.87 gram and the “pull-away threshold value, contra-lateral rear paw, mean” value [1, 15] was 59.93 gram. For the same compound, the “pull-away threshold value, ipsi-lateral rear paw, mean” value [1, 15] was 39.19 gram, the “efficacy (conclusion)” value ([1]; combination of two threshold doses of the same opioid, pull away increased on ipsi- and contra-lateral paw) was “additive antinociceptive efficacy” and the “% MPE (increase in pain latency), mean” value (rats [2]; Morphine 0.4 mg/kg i.v., 20 min) was 23.62 % MPE. For the same compound, the “% MPE (increase in pain latency), mean” value (rats [2]; Morphine 0.4 mg/kg i.v., 40 min) was 14.1 % MPE, the “% MPE (increase in pain latency), mean” value (rats [2]; Morphine 0.8 mg/kg i.v., 10 min) was 45.31 % MPE and the “% MPE (increase in pain latency), mean” value (rats [2]; Morphine 0.8 mg/kg i.v., 20 min) was 45.02 % MPE. The “% MPE (increase in pain latency), mean” value (rats [2]; Morphine 0.8 mg/kg i.v., 40 min) was 25.86 % MPE, the “% MPE (increase in pain latency), mean” value (rats [2]; Morphine 0.8 mg/kg i.v., 60 min) was 14.62 % MPE and the “% MPE (increase in pain latency), mean” value (rats [3]; Morphine 0.4 mg/kg i.v., 10 min) was 26.51 % MPE. For the same compound, the “% MPE (increase in pain latency), mean” value (rats [3]; Morphine 0.4 mg/kg i.v., 60 min) was 4.23 % MPE and the “antinociceptive efficacy (conclusion)” value (rats [3]; combination of two threshold doses of the same opioid) was “additive antinociceptive efficacy”.
